# Data taken from ChEMBL document CHEMBL1201862, “PubChem BioAssay data set” (2004).
# The source made the active and inactive calls.
# Key:
# [1] = biological target: T1, Endoribonuclease toxin MazF (Escherichia coli K-12, UniProt P0AE70); assay: activation of MazEF endoribonuclease cleavage – biochemical, fluorescence, single-stranded RNA substrate, uHTS hits, dose response (AID 588481); assay type: functional
# T1 sequence (P0AE70 whole entry): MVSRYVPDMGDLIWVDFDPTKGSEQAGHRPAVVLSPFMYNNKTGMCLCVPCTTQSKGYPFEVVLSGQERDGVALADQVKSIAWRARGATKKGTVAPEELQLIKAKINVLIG
# [2] = biological target: T1, Endoribonuclease toxin MazF; assay: substrate-only fluorescence increase artefacts – biochemical, single-stranded RNase substrate, counter-screen for MazEF activator project, dose response (AID 588502); assay type: functional
# [3] = biological target: T2, Oxysterols receptor LXR-beta (Homo sapiens, UniProt P55055); assay: LXR agonists, Gal4 luciferase reporter, dose response, counter-screen for ssDAF-12 agonist project, cell-based, luminescence, HEK293, S. stercoralis campaign (AID 720737); assay type: functional; settings: read-out: IC50 (the source's name)
# T2 sequence (P55055 whole entry): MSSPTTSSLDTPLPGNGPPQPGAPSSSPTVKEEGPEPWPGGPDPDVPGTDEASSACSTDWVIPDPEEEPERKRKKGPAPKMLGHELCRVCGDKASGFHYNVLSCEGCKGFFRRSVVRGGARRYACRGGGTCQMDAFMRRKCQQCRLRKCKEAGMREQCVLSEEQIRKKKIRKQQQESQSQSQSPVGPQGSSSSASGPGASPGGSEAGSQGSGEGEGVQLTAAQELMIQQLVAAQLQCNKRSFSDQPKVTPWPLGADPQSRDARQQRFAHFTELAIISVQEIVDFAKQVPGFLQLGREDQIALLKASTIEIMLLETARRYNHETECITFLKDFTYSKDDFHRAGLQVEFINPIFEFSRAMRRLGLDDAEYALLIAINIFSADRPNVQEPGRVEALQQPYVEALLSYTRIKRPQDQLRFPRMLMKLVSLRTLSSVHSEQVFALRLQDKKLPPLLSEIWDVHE
# [4] = Luminescence-based cell-based high throughput dose response assay to identify activators of the DAF-12 from the parasite S. stercoralis (ssDAF-12).; assay type: functional
# cells [5] = assay: cells
# [6] = viability of uninfected HEp-2 cells – cell-based, HTS, cytotoxicity control for RSV inhibitor project, dose response (AID 2410); assay type: functional; settings: human respiratory syncytial virus
# [7] = biological target: T3, Probable nicotinate-nucleotide adenylyltransferase (Staphylococcus aureus (strain N315), UniProt P65502); assay type: functional, Staphylococcus aureus subsp. aureus N315;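 for IC50 Mean: confirmatory dose-response retesting of NadD inhibitor hits first found in an ultra-high-throughput screen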
# [8] = biological target: Voltage-dependent T-type calcium channel subunit alpha-1H (Homo sapiens, UniProt O95180); assay type: functional;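 note: channel activity triggered by adding a high calcium stimulation buffer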
# [9] = biological target: T3, Probable nicotinate-nucleotide adenylyltransferase; assay type: functional, Staphylococcus aureus subsp. aureus N315; settings: read-out: IC50_Mean
# [10] = viability loss in THP-1 monocytes – THP-1 cells, cytotoxicity control for Vif-APOBEC3G degradation inhibitor project, dose response (AID 1117359); assay type: functional; settings: THP-1
# Estrogen receptor beta [11] = biological target: T4, Estrogen receptor beta (Homo sapiens, UniProt Q92731);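 note: recombinant ER-beta bound to coactivator SRC1 peptide in presence of estradiol agonist; inhibitors block coactivator peptide binding and lower the FRET signal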
# Estrogen receptor = biological target: T5, Estrogen receptor (Homo sapiens, UniProt P03372);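 note: potency for inhibiting coactivator peptide recruitment to the receptor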
# T5 sequence (P03372 whole entry): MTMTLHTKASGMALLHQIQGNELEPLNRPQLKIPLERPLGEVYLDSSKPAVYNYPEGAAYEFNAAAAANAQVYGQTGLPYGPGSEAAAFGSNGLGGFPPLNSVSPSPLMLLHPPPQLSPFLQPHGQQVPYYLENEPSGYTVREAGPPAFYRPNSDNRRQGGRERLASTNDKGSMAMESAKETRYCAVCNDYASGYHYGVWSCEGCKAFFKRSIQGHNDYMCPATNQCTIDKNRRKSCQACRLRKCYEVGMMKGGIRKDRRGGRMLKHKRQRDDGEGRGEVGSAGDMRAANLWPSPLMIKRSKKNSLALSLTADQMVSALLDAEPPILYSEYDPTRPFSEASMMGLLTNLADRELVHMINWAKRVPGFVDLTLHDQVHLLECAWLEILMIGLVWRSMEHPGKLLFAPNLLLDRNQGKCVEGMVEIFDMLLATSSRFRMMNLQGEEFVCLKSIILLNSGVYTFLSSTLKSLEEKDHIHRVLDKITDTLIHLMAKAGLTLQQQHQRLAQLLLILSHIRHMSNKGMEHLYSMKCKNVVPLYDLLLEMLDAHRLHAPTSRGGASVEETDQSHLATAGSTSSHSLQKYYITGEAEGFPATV
# Estrogen receptor beta [12] = biological target: T4, Estrogen receptor beta; assay: blockers of SRC-3 recruitment to ERβ – biochemical, ELISA, streptavidin-HRP readout, orthogonal assay, confirmation (AID 1060)
# Vero [13] = assay: cells; assay type: functional, cell-based; settings: Chlorocebus sabaeus
# Vero [14] = assay: cells; assay type: functional; settings: Chlorocebus sabaeus
# [15] = biological target: T6, RNA-binding protein pos-1 (Caenorhabditis elegans, UniProt G5EF15); assay: disruptors of C. elegans POS-1 RNA interaction – biochemical, fluorescence polarization, dose response (AID 1964);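 note: purified POS-1 fused to maltose binding protein made in E. coli; potency of compounds blocking POS-1 binding to fluorescent RNA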
# T6 sequence (G5EF15 whole entry): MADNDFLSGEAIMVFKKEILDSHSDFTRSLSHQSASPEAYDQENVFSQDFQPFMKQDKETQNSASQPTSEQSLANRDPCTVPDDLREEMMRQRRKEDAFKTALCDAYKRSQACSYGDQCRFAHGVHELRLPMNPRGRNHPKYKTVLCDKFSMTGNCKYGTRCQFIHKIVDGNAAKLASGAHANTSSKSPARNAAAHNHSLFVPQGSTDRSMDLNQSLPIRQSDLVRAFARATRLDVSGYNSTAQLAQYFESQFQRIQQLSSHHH
# [16] = biological target: T7, Zinc finger protein mex-5 (Caenorhabditis elegans, UniProt Q9XUB2); assay: potency of MEX-5 RNA-binding blockers – biochemical, C. elegans, fluorescence polarization, dose response (AID 1960)
# T7 sequence (Q9XUB2 whole entry): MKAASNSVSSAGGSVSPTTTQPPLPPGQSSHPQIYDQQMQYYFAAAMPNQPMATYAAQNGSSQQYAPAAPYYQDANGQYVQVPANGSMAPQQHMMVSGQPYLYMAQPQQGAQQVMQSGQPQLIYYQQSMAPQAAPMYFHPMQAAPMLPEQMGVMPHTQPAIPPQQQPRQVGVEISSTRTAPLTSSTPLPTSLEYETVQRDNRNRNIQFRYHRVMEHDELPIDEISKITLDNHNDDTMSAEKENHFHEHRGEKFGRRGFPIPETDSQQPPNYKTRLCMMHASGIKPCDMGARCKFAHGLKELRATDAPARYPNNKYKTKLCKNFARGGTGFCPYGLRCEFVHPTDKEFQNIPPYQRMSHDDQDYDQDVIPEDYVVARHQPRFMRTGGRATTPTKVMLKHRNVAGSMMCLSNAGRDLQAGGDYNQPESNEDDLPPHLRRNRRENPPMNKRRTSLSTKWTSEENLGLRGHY
# INS1 = assay: INS-1E survival protection against cytokine death – cell-based, luminescence, retest, dose response (AID 449756); assay type: functional; settings: Rattus norvegicus;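 note: cell death triggered by IL-1 beta plus TNF-alpha plus IFN-gamma mixture; protective hits raise ATP signal compared with cytokine alone wells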
# Streptococcus = assay: GAS UMAA2166 growth inhibition – luminescence, BacTiterGlo, counter-screen for streptokinase expression inhibitor project, dose response (AID 1915); assay type: functional, organism-based;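 note: potency for reduction of bacterial viability or growth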
# [17] = fluconazole-exposed Candida albicans growth modulators – fluorescence, retest, confirmation (AID 2467); assay type: functional, cell-based
# [18] = system: Streptococcus sp. 'group A'; assay: Streptococcus pyogenes SK(-)GAS viability under kanamycin – luminescence, BacTiterGlo, confirmation, counter-screen for streptokinase expression inhibitor project, dose response (AID 1900); assay type: functional, organism-based
# cells [19] = assay type: functional, cell-based
# [20] = Luminescence-based counterscreen assay for KLF5 inhibitors: dose response cell-based high throughput screening assay to identify cytotoxic compounds using the IEC-6 intestinal epithelial cell line. [Related pubchem assays: 1700 (Primary screen.), 1834 (Confirmation screen.), 1858 (Summary AID.), 1905 (Counterscreen.)]; assay type: functional
# cells [21] = assay type: functional, cell-based; remark: listed apart in the source
# [22] = NIH-3T3 fibroblast cytotoxicity, dose response, cytotoxicity control, cell-based, fluorescence, Alamar Blue, secondary assay (AID 2327); assay type: functional;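 note: NIH-3T3 mouse fibroblasts cultured with fluconazole at 8 µg/mL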
# Protein Wnt-3a = Protein Wnt-3a (Mus musculus, UniProt P27467); assay: antagonism of Wnt3a pathway luciferase reporter – Wnt-LIGHT cells, luminescence, selectivity assay for Gli-SUFU antagonist project, dose response (AID 651570); assay type: functional; settings: read-out: IC50_Mean;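 note: Wnt-LIGHT reporter cells stimulated with conditioned medium from Wnt3a-producing cells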
# Paired box protein Pax-8 = Paired box protein Pax-8 (Homo sapiens, UniProt Q06710); assay: PAX8 transcriptional activity inhibition in RMG-I – RMG-I cells, luciferase, cherry-pick, dose response (AID 687027); assay type: functional, cell-based;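 note: luciferase reporter driven by Pax8 target thyroperoxidase promoter measured by SteadyGlo luminescence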
# [23] = OVCAR-3 cell viability loss – plate reader, dry powder samples, PAX8 inhibitor project, dose response (AID 743044); assay type: functional, cell-based
# [24] = OVCAR8 cell viability loss – plate reader, dry powder samples, PAX8 project, dose response (AID 743197); assay type: functional, cell-based; settings: OVCAR-8
# [25] = P. falciparum Dd2 growth inhibitors, dose response, SYBR Green, cherry-picked samples (AID 1159567); assay type: functional, cell-based
# [26] = IGROV1 cell killing – plate reader, dry powder samples, PAX8 inhibitor project, dose response (AID 743043); assay type: functional, cell-based; settings: IGROV-1
# [27] = toxicity to human hepatoma HepG2 cells – cell-based, cherry-picked samples, cytotoxicity control, dose response (AID 1159577); assay type: functional
# [28] = biological target: Luciferin 4-monooxygenase (Photinus pyralis, UniProt P08659); assay: inhibition of purified Photinus pyralis luciferase – biochemical, luminescence, dose response (AID 1891)
# [29] = Luminescence Cell-Based Dose Confirmation HTS to Identify Inhibitors of Platelet Dense Granule Release. [Related pubchem assays: 1663 (Primary HTS), 1678 (Summary of Project)]; assay type: functional
# T4 sequence (Q92731 whole entry): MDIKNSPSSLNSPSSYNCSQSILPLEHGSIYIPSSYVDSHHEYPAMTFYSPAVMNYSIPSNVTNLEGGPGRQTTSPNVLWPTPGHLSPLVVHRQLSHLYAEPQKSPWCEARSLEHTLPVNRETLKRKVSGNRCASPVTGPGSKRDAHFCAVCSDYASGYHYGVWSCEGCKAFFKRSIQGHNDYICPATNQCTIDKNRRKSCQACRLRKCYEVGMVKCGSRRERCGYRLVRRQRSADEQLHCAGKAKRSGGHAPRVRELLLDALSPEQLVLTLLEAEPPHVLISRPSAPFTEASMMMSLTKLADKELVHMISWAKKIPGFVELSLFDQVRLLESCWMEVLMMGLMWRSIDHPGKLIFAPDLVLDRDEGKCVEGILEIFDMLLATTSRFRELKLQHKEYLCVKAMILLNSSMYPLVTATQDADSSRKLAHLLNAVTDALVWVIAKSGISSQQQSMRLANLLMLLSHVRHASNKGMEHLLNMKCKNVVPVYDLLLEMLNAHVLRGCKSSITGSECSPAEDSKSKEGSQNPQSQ
# Sequence of Voltage-dependent T-type calcium channel subunit alpha-1H (O95180 whole entry): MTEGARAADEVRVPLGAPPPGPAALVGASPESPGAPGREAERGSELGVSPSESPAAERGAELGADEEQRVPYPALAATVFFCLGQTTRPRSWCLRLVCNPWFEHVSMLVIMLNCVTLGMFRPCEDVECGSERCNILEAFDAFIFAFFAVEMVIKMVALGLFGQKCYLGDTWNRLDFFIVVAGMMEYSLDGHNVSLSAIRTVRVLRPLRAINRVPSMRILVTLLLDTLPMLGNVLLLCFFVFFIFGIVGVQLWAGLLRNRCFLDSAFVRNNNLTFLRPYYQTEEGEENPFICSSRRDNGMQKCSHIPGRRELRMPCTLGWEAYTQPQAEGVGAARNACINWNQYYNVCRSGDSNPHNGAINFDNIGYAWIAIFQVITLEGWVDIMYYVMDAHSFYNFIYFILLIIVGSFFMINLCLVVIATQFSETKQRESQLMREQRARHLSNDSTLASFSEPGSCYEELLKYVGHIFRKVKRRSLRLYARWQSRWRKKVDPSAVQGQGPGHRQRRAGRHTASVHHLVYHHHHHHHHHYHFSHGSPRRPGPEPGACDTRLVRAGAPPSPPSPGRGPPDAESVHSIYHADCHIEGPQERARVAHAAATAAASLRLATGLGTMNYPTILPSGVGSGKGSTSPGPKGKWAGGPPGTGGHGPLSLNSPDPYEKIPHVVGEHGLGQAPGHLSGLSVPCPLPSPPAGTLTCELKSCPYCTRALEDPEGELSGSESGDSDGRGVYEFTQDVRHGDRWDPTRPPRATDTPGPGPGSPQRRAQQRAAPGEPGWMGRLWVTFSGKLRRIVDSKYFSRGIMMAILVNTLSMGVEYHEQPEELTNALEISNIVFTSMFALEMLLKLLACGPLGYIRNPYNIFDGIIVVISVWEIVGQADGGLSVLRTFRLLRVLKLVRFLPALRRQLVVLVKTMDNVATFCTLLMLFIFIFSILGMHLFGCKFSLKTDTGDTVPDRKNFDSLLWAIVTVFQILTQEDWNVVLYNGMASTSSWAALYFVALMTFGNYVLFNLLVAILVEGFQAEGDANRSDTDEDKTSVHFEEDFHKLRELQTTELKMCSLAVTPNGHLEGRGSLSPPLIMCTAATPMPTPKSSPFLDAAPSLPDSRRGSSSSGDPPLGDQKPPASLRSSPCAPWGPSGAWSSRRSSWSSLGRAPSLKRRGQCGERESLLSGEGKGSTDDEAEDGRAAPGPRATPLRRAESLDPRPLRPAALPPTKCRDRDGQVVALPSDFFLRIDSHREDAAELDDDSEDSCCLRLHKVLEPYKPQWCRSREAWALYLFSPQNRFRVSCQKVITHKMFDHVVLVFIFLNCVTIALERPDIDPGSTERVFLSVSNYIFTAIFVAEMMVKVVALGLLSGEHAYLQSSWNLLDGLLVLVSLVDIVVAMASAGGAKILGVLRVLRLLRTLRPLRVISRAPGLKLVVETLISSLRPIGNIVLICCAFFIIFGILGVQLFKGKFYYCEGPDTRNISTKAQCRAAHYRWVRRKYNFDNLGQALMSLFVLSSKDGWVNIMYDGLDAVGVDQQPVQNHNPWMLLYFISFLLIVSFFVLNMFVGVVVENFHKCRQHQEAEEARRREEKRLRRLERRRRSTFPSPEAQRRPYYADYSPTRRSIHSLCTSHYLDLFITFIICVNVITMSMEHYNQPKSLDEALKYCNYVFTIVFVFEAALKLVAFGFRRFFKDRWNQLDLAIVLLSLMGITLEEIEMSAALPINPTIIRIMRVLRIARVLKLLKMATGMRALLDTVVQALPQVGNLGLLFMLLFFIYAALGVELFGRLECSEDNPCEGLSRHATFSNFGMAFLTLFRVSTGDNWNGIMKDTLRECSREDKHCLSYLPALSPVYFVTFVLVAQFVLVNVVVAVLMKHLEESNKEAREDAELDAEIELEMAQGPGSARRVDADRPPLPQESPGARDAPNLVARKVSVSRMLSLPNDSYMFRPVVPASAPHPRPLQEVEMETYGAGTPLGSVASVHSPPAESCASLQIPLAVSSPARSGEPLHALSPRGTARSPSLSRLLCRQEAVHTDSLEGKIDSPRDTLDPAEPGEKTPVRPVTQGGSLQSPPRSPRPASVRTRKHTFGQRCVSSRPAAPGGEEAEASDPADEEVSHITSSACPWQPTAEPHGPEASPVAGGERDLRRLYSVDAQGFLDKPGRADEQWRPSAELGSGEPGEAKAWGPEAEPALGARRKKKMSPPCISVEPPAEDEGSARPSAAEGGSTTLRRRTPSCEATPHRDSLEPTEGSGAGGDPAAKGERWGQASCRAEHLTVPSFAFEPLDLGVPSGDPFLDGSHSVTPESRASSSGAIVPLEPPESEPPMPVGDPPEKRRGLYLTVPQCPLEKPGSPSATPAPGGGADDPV
# T3 sequence (P65502 whole entry): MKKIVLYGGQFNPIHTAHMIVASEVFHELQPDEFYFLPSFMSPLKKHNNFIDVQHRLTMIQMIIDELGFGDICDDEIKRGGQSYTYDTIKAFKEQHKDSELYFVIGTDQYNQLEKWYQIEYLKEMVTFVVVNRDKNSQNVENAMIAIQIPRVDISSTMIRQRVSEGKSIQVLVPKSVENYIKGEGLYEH
# Sequence of Protein Wnt-3a (P27467 whole entry): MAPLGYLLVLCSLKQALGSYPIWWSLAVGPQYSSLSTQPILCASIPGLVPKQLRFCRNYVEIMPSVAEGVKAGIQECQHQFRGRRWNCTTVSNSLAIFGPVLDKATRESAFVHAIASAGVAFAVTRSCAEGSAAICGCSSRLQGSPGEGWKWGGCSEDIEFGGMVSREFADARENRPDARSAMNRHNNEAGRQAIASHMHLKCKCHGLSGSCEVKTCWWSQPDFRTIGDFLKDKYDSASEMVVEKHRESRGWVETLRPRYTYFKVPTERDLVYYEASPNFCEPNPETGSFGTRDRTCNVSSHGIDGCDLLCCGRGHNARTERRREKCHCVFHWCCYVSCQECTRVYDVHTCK
# Sequence of Luciferin 4-monooxygenase (P08659 whole entry): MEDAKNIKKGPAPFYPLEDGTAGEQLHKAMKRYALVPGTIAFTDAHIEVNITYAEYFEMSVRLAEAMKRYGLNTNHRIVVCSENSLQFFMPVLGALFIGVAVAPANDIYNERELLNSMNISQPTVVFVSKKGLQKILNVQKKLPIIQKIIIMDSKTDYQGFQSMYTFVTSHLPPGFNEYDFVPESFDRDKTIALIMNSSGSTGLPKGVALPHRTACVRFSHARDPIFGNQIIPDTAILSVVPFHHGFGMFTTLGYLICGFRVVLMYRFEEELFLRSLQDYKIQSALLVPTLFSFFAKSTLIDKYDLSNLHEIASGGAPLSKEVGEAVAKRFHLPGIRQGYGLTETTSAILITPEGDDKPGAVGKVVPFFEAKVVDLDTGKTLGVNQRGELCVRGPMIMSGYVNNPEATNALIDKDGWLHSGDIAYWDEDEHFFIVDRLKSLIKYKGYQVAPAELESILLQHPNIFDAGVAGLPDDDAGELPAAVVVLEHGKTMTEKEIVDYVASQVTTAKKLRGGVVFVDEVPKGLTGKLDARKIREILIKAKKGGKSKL
# Sequence of Paired box protein Pax-8 (Q06710 whole entry): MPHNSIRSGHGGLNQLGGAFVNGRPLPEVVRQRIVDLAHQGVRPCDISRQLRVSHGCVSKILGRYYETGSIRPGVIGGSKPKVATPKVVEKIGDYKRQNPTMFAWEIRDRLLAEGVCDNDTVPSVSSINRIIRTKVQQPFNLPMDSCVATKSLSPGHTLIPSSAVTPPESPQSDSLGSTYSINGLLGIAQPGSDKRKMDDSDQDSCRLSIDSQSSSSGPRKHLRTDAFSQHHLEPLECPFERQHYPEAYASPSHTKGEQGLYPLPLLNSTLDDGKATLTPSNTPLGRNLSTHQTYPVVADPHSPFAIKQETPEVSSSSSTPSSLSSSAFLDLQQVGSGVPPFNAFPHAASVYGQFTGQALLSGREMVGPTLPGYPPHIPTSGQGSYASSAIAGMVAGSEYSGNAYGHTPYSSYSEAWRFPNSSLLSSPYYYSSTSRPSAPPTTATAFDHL
structure (smiles),measurement,setting,value
CCn1c(C)cc(C=C2C(=O)c3ccccc3C2=O)c1C,EC50,[1],44.5 µM (inactive)
same,EC50,[2],62.8 µM (inactive)
same,EC50,[3],> 67.5 µM (inactive)
same,IC50,[4],> 67.5 µM (inactive)
O=C(CNC(=O)c1cccs1)N=Nc1c(O)[nH]c2ccc([N+](=O)[O-])cc12,IC50,cells [5],14.6 µM (active)
same,CC50,[6],> 50 µM (active)
Cc1ccc(-n2nc3c(c2NC(=O)c2cccs2)CSC3)cc1,IC50,[7],6.35 µM (active)
same,EC50,[8],0.558 µM (active)
same,IC50,[9],16.2 µM (active)
CCOc1ccc(C(=O)NC(=S)Nc2ccc(N3CCC(C)CC3)cc2)cc1[N+](=O)[O-],CC50,[10],> 40 µM (active)
Cc1ccc(-n2c(=O)c(C#N)cc3c(=O)n4cccc(C)c4nc32)cc1,IC50,Estrogen receptor beta [11],25.4 µM (active)
same,IC50,Estrogen receptor,30.9 µM (not active)
same,IC50,Estrogen receptor beta [12],< 77 µM (not active)
CC1=Nc2cc(C(=O)N3CCCC3)ccc2Sc2c(C)ccc(C)c21,IC50,cells [5],3.34 µM (active)
same,CC50,[6],7.28 µM (active)
same,IC50,Vero [13],8.21 µM (active)
same,CC50,Vero [14],16.9 µM (active)
COc1ccccc1NC(=O)N1CCc2[nH]c3ccc(F)cc3c2C1,EC50,[8],5.47 µM (active)
same,CC50,[6],> 50 µM (active)
CCn1c(SCc2ccc(C)cc2)nnc1C1CCN(S(=O)(=O)c2ccc(OC)cc2)CC1,EC50,[15],> 300 µM (not active)
same,EC50,[16],> 300 µM (not active)
same,EC50,[8],6.41 µM (active)
Cc1nn(Cc2ccccc2Cl)c(C)c1C(=O)Nc1nnc(C2CC2)s1,IC50,cells [5],3.75 µM (active)
same,CC50,[6],7.49 µM (active)
same,IC50,Vero [13],5.21 µM (active)
same,CC50,Vero [14],> 25 µM (active)
COc1ccc(OC)c2[nH]c(C(=O)N/N=C/c3ccccc3O)cc12,AC50,INS1,2.12 µM (active)
same,EC50,Streptococcus,2.37 µM (active)
same,EC50,[17],1.86 µM (active)
same,EC50,[18],1.96 µM (active)
same,EC50,cells [19],12.2 µM (active)
same,IC50,[20],12.5 µM (not active)
same,EC50,cells [21],> 350 µM (not active)
same,EC50,[22],> 160 µM (inactive)
CC1CCN(Cc2c(C(=O)N/N=C/c3ccccc3O)nnn2-c2nonc2N)CC1,AC50,INS1,0.9 µM (active)
same,IC50,Protein Wnt-3a,20.8 µM (inactive)
same,EC50,cells [19],29.5 µM (active)
same,IC50,[20],4.81 µM (active)
same,EC50,cells [21],> 350 µM (not active)
CCCC#Cc1ccc([C@H]2[C@@H](CO)N3CCCCN(S(=O)(=O)Cc4ccccc4)C[C@H]23)cc1,AC50,Paired box protein Pax-8,20.5 µM (active)
same,AC50,[23],23.5 µM (active)
same,AC50,[24],> 70 µM (inactive)
same,AC50,[25],2.67 µM (active)
same,AC50,[26],30.9 µM (active)
same,AC50,[27],11.9 µM (active)
CC(=N)/C(C#N)=C(/O)CSc1nnnn1-c1ccc(C)cc1,IC50,Estrogen receptor beta [11],13.7 µM (active)
same,IC50,Estrogen receptor beta [12],0.345 µM (not active)
O=C(Nc1ccccc1)N1CCCCN2[C@@H](CO)[C@@H](c3ccc(-c4ccccc4)cc3)[C@@H]2C1,AC50,[25],4.43 µM (active)
same,AC50,[27],9.01 µM (active)
O=S(=O)(c1ccccc1)N1C[C@@H]2N[C@H](C1)[C@@H]2c1ccc(-c2ccc(F)cc2)cc1,AC50,[25],5.34 µM (active)
same,AC50,[27],10.9 µM (active)
COc1cccc(CN(C)C[C@H]2OCc3ccccc3-c3c(n(C)c4ccccc34)C(=O)N([C@@H](C)CO)C[C@H]2C)c1,AC50,[25],1.62 µM (active)
same,AC50,[27],18 µM (active)
Cc1ccc(Nc2nc(N)c3ccccc3n2)cc1Cl,EC50,[3],> 67.6 µM (inactive)
same,IC50,[4],> 67.6 µM (inactive)
same,EC50,[28],0.528 µM (active)
same,EC50,[29],4.99 µM (active)
